Results published in DBAASP.
Converted amounts (≈) assume the structure as drawn. “And” between values parts separate entries of the source, which are not always exact repeats. Equal values may be shown once.

Legend:
Assay in all cases: ≥ marks a high value that may be exact or a test limit, other limits are often not marked, values filed in µg/mL are converted to µM
[1] = tested on: Pseudomonas aeruginosa ATCC 27853
[2] = tested on: Staphylococcus aureus ATCC 49476
Staphylococcus aureus MR = tested on: Staphylococcus aureus MR
Candida albicans = tested on: Candida albicans
Leuconostoc lactis = tested on: Leuconostoc lactis
Bacillus cereus = tested on: Bacillus cereus
Streptococcus uberis = tested on: Streptococcus uberis
Escherichia coli = tested on: Escherichia coli
Staphylococcus aureus = tested on: Staphylococcus aureus
Listeria innocua = tested on: Listeria innocua
Micrococcus luteus = tested on: Micrococcus luteus
Pasteurella multocida = tested on: Pasteurella multocida
[3] = tested on: Staphylococcus epidermidis
[4] = tested on: Candida krusei CCARM 14017
[5] = tested on: Trichosporon beigelii KCTC 7707
[6] = tested on: Candida parapsilosis CCARM 14016
[7] = tested on: Candida tropicalis KCTC 7221
[8] = tested on: Fusarium verticillioides KCTC 6149
[9] = tested on: Fusarium oxysporum KCTC 16909
Escherichia coli DH10B = tested on: Escherichia coli DH10B
[10] = tested on: Saccharomyces cerevisiae BY4741
[11] = tested on: Enterococcus faecium E007
[12] = tested on: Staphylococcus aureus ATCC 29231
[13] = tested on: Acinetobacter baumannii ATCC 7978
[14] = tested on: Staphylococcus aureus MW2
[15] = tested on: Streptococcus suis CVCC 606
[16] = tested on: Escherichia coli CVCC 1515
[17] = tested on: Bacillus subtilis ATCC 6633
[18] = tested on: Salmonella enterica subsp. enterica serovar Pullorum CVCC 533
[19] = tested on: Enterococcus faecalis CVCC 3936
[20] = tested on: Escherichia coli CVCC 195
[21] = tested on: Salmonella enterica subsp. enterica serovar Typhimurium ATCC 14028
[22] = tested on: Salmonella enterica subsp. enterica serovar Pullorum CVCC 1809
[23] = tested on: Candida albicans CGMCC 2.2411
[24] = tested on: Staphylococcus aureus ATCC 43300
[25] = tested on: Pseudomonas aeruginosa CICC 10419
[26] = tested on: Listeria ivanovii ATCC 19119

CC[C@H](C)[C@H](NC(=O)[C@H](C)NC(=O)[C@H](CCCCN)NC(=O)CNC(=O)[C@H](C)NC(=O)[C@H](CO)NC(=O)[C@H](Cc1ccccc1)NC(=O)[C@H](CC(C)C)NC(=O)CNC(=O)CNC(=O)[C@@H](NC(=O)[C@@H](NC(=O)[C@H](Cc1cnc[nH]1)NC(=O)[C@H](Cc1cnc[nH]1)NC(=O)[C@H](C)NC(=O)[C@H](C)N)[C@@H](C)CC)[C@@H](C)CC)C(=O)N[C@@H](Cc1cnc[nH]1)C(=O)N[C@@H](CCCN=C(N)N)C(=O)N[C@@H](CC(C)C)C(=O)N[C@H](C(=O)N[C@@H](CCCN=C(N)N)C(=O)N[C@@H](CCCN=C(N)N)C(=O)N[C@@H](CCCN=C(N)N)C(=O)N[C@@H](CCCN=C(N)N)C(=O)N[C@@H](CCCN=C(N)N)C(=O)O)[C@@H](C)CC [AAHHIIGGLFSAGKAIHRLIRRRRR]
MIC [1]: 89.4 µM (≈ 256 µg/mL)
MIC [2]: ≥ 44.7 µM
MIC (Staphylococcus aureus MR): ≥ 179 µM
MIC (Candida albicans): 22.4 µM (≈ 64 µg/mL)

CC[C@H](C)[C@H](NC(=O)[C@H](CO)NC(=O)[C@H](CO)NC(=O)[C@H](CCSC)NC(=O)[C@H](CC(C)C)NC(=O)CN)C(=O)NCC(=O)N[C@@H](CCCCN)C(=O)N[C@@H](C)C(=O)N[C@@H](CC(C)C)C(=O)NCC(=O)NCC(=O)N[C@@H](CC(C)C)C(=O)N[C@H](C(=O)N[C@H](C(=O)N[C@@H](CC(=O)O)C(=O)N[C@H](C(=O)N[C@@H](CC(C)C)C(=O)N[C@@H](CCCCN)C(=O)N1CCC[C@H]1C(=O)N[C@@H](CCCCN)C(=O)N[C@H](C(=O)N1CCC[C@H]1C(=O)N[C@@H](C)C(=O)N[C@@H](CO)C(=O)O)[C@@H](C)O)C(C)C)C(C)C)[C@@H](C)CC [GLMSSIGKALGGLIVDVLKPKTPAS]
MIC (Leuconostoc lactis): ≥ 40.8 µM
MIC (Bacillus cereus): ≥ 40.8 µM
MIC (Streptococcus uberis): 20.4 µM (≈ 50 µg/mL)
MIC (Escherichia coli): > 40.8 µM
MIC (Staphylococcus aureus): > 40.8 µM
MIC (Listeria innocua): ≥ 40.8 µM
MIC (Micrococcus luteus): ≥ 40.8 µM
MIC (Pasteurella multocida): ≥ 40.8 µM
MIC [3]: ≥ 40.8 µM

CC[C@H](C)[C@H](NC(=O)[C@H](C)NC(=O)[C@H](CCC(=O)O)NC(=O)[C@H](Cc1cnc[nH]1)NC(=O)[C@H](C)NC(=O)CNC(=O)[C@H](CCC(N)=O)NC(=O)[C@H](Cc1ccccc1)NC(=O)[C@@H](NC(=O)[C@H](CCCCN)NC(=O)[C@H](CCCCN)NC(=O)[C@H](C)NC(=O)[C@H](C)NC(=O)[C@H](CC(N)=O)NC(=O)[C@H](CC(C)C)NC(=O)CN)C(C)C)C(=O)N[C@@H](CCCCN)C(=O)N[C@@H](CC(C)C)C(=O)N[C@H](C(=O)N[C@@H](CC(N)=O)C(=O)N[C@@H](CC(N)=O)C(=O)N[C@@H](Cc1cnc[nH]1)C(=O)N[C@H](C(=O)N[C@@H](CCC(N)=O)C(N)=O)C(C)C)[C@@H](C)CC [GLNAAKKVFQGAHEAIKLINNHVQ]
MIC [4]: 8 µM (≈ 20.8 µg/mL)
MIC [5]: 2 µM (≈ 5.2 µg/mL)
MIC [6]: ≥ 64 µM
MIC [7]: 4 µM and 2 µM
MIC [8]: ≥ 48 µM
MIC [9]: 4 µM and 12 µM

CSCC[C@H](NC(=O)[C@@H]1CCCN1C(=O)[C@H](CCC(N)=O)NC(=O)CNC(=O)[C@@H]1CCCN1C(=O)[C@H](CCCCN)NC(=O)[C@H](CC(C)C)NC(=O)[C@H](CCC(N)=O)NC(=O)[C@H](CC(C)C)NC(=O)[C@H](Cc1c[nH]c2ccccc12)NC(=O)[C@H](Cc1cnc[nH]1)NC(=O)[C@H](Cc1c[nH]c2ccccc12)NC(=O)[C@H](Cc1ccccc1)NC(=O)[C@H](CCCN=C(N)N)NC(=O)[C@H](CC(N)=O)NC(=O)[C@H](CC(C)C)NC(=O)[C@H](Cc1ccccc1)NC(=O)[C@@H](N)CCCCN)C(=O)N[C@@H](Cc1ccc(O)cc1)C(=O)O [KFLNRFWHWLQLKPGQPMY]
MIC (Escherichia coli DH10B): 20 µM (≈ 49.8 µg/mL)
MIC [10]: 10 µM (≈ 24.9 µg/mL)

CC[C@H](C)[C@H](NC(=O)[C@H](CCCCN)NC(=O)[C@H](CCCCN)NC(=O)[C@@H](N)CC(C)C)C(=O)NCC(=O)N[C@@H](CCCCN)C(=O)N[C@@H](CCCCN)C(=O)N[C@H](C(=O)N[C@@H](Cc1c[nH]c2ccccc12)C(=O)N[C@@H](CCCN=C(N)N)C(=O)N[C@H](C(=O)NCC(=O)N[C@@H](Cc1c[nH]c2ccccc12)C(=O)N[C@@H](CC(N)=O)C(=O)N[C@H](C(=O)N[C@@H](CCCN=C(N)N)C(=O)O)[C@@H](C)O)C(C)C)[C@@H](C)CC [LKKIGKKIWRVGWNTR]
MIC [11]: ≥ 64.5 µM
MIC [12]: ≥ 64.5 µM
MIC [13]: ≥ 64.5 µM
MIC [14]: ≥ 64.5 µM

CC(C)[C@H](N)C(=O)N[C@H]1CSSC[C@@H](C(=O)N[C@@H](Cc2cnc[nH]2)C(=O)N[C@@H](CCCN=C(N)N)C(=O)N[C@@H](CCCN=C(N)N)C(=O)N[C@@H](C)C(=O)N[C@@H](CC(N)=O)C(=O)N[C@@H](CC(N)=O)C(=O)NCC(=O)N[C@H](C(=O)N[C@@H](CCCN=C(N)N)C(=O)N[C@H](C(=O)O)C(C)C)C(C)C)NC(=O)[C@H](CC(N)=O)NC(=O)[C@H](Cc2c[nH]c3ccccc23)NC(=O)[C@H](C)NC(=O)[C@H](Cc2ccccc2)NC(=O)CNC(=O)[C@H](CCCN=C(N)N)NC(=O)[C@H](Cc2ccc(O)cc2)NC(=O)[C@H](C(C)C)NC1=O [VCVYRGFAWNCHRRANNGVRV]
MIC [15]: 25.8 µM (≈ 63.9 µg/mL)
MIC [16]: 25.8 µM (≈ 63.9 µg/mL)
MIC [17]: 25.8 µM (≈ 63.9 µg/mL)
MIC [18]: 25.8 µM (≈ 63.9 µg/mL)
MIC [19]: 25.8 µM (≈ 63.9 µg/mL)
MIC [20]: 25.8 µM (≈ 63.9 µg/mL)
MIC [21]: > 25.8 µM
MIC [22]: 25.8 µM (≈ 63.9 µg/mL)
MIC [23]: 25.8 µM (≈ 63.9 µg/mL)
MIC [24]: > 25.8 µM
MIC [25]: 25.8 µM (≈ 63.9 µg/mL)
MIC [26]: 25.8 µM (≈ 63.9 µg/mL)
